Source: patent US12692238B2, “Substituted pyridazinone herbicides” (FMC CORPORATION, priority 2020, dated 2026)

Experiments:
Assay type in all cases: in vivo
[1] = system: blackgrass (Alopecurus myosuroides); assay: Test A preemergence, blackgrass; details: 0 to 100 scale, 10 days
How it was run: (§1)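 Visual injury ratings on a 0 to 100 scale (0 no effect, 100 complete control) were made 10 days after treatment, relative to untreated controls. Test chemicals in a surfactant-containing non-phytotoxic solvent were applied to soil at planting or to one- to two-leaf plants 2 to 10 cm tall.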

corn (Zea mays) = assay: Test A preemergence, corn; details: 0 to 100 scale, 10 days
How it was run: as §1

[2] = system: goosegrass (Eleusine indica); assay: Test A preemergence, goosegrass; details: 0 to 100 scale, 10 days
How it was run: as §1

[3] = system: oat, wild (wild oat, Avena fatua); assay: Test A preemergence, oat, wild; details: 0 to 100 scale, 10 days
How it was run: as §1

[4] = system: palmer amaranth (pigweed, palmer, Amaranthus palmeri); assay: Test A preemergence, palmer amaranth; details: 0 to 100 scale, 10 days
How it was run: as §1

soybean (Glycine max) [5] = assay: Test A preemergence, soybean; details: 0 to 100 scale, 10 days
How it was run: as §1

[6] = system: goosegrass (Eleusine indica); assay: Test A postemergence, goosegrass; details: 10 days
How it was run: as §1

kochia (Bassia scoparia) = assay: Test A postemergence, kochia; details: Bassia scoparia, post-emergence, 240 h, 10 days, read-out: Plant response rating, Kochia
How it was run: as §1

[7] = system: oat, wild (wild oat, Avena fatua); assay: Test A postemergence, oat, wild; details: 10 days
How it was run: as §1

[8] = system: palmer amaranth (pigweed, palmer, Amaranthus palmeri); assay: Test A postemergence, palmer amaranth; details: 10 days
How it was run: as §1

soybean (Glycine max) [9] = assay: Test A postemergence, soybean; details: 10 days
How it was run: as §1

[10] = system: wheat (Triticum aestivum); assay: Test A postemergence, wheat; details: Triticum aestivum, post-emergence, 240 h, 10 days, read-out: Plant response rating, Wheat
How it was run: as §1

[11] = system: horseweed (Erigeron canadensis); assay: Test A postemergence, horseweed; details: 10 days
How it was run: as §1

[12] = system: barnyardgrass (Echinochloa crus-galli); assay: Test B flooded paddy test, barnyardgrass; details: Echinochloa crus-galli; 250 g ai/ha, Flood; visually evaluated after 10 to 14 days; read-out: Plant response rating, Barnyardgrass (0 to 100 scale where 0 is no effect and 100 is complete control)
How it was run: (§2)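 Compound is introduced straight into paddy water on flooded pots (3 cm) containing 2-leaf-stage plants. Controls are run alongside, and all plants are rated by eye on a 0–100 scale after 10 to 14 days under glass.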

rice (Oryza sativa) = assay: Test B flooded paddy test, rice; details: Oryza sativa; 250 g ai/ha, Flood; visually evaluated after 10 to 14 days; read-out: Plant response rating, Rice (0 to 100 scale where 0 is no effect and 100 is complete control)
How it was run: as §2

[13] = system: wheat (Triticum aestivum); assay: Test A preemergence, wheat; details: 125 g ai/ha, 0 to 100 scale, 10 days
[14] = 31 g ai/ha, postemergence, 0 to 100 scale (0 no effect, 100 complete control)
[15] = Postemergence, 125 g ai/ha, 0 to 100 scale

In the case of `Cc1ccc2cc3ccc(C)cc3c(-c3c(OCOC(=O)C(C)(C)C)c(Cl)nn(C)c3=O)c2c1` [Compound 9, [[3-chloro-5-(2,7-dimethyl-9-anthracenyl)-1,6-dihydro-1-methyl-6-oxo-4-pyridazinyl]oxy]methyl 2,2-dimethylpropanoate], the “Plant response rating, Blackgrass” value ([1]; 31 g ai/ha) was 0, the “Plant response rating, Blackgrass” value ([1]; 125 g ai/ha) was 0 and the “Plant response rating, Corn” value (corn (Zea mays); 31 g ai/ha) was 0. The “Plant response rating, Corn” value (corn (Zea mays); 125 g ai/ha) was 0, the “Plant response rating, Goosegrass” value ([2]; 31 g ai/ha) was 10 and the “Plant response rating, Goosegrass” value ([2]; 125 g ai/ha) was 10. The “Plant response rating, Oat, Wild” value ([3]; 31 g ai/ha) was 0, the “Plant response rating, Oat, Wild” value ([3]; 125 g ai/ha) was 0 and the “Plant response rating, Pigweed, Palmer” value ([4]; 31 g ai/ha) was 40. The “Plant response rating, Pigweed, Palmer” value ([4]; 125 g ai/ha) was 100, the “Plant response rating, Soybean” value (soybean (Glycine max) [5]; 31 g ai/ha) was 0 and the “Plant response rating, Soybean” value (soybean (Glycine max) [5]; 125 g ai/ha) was 0. The “Plant response rating, Goosegrass” value [6, 14] was 30, the “Plant response rating, Goosegrass” value [6, 15] was 30 and the pest or weed control at 31 g/ha (kochia (Bassia scoparia); [14]) was 70%. For the same molecule, the pest or weed control at 125 g/ha (kochia (Bassia scoparia); [15]) was 90%, the “Plant response rating, Oat, Wild” value [7, 14] was 0 and the “Plant response rating, Oat, Wild” value [7, 15] was 0. For the same molecule, the “Plant response rating, Pigweed, Palmer” value [8, 14] was 80, the “Plant response rating, Pigweed, Palmer” value [8, 15] was 80 and the “Plant response rating, Soybean” value (soybean (Glycine max) [9]; [14]) was 40. The “Plant response rating, Soybean” value (soybean (Glycine max) [9]; [15]) was 60, the plant injury at 31 g/ha [10, 14] was 0% and the plant injury at 125 g/ha [10, 15] was 0%. For the same molecule, the “Plant response rating, Horseweed” value [11, 14] was 100, the “Plant response rating, Horseweed” value [11, 15] was 100 and the pest or weed control at 250 g/ha [12] was 98%. For the same molecule, the plant injury at 250 g/ha (rice (Oryza sativa)) was 0% and the “Plant response rating, Wheat” value [13] was 0.
